Assay results published in patent publication US8420606B2, “Method of utilizing physiological activity of rare saccharide and composition containing rare saccharide” (priority 2002, dated 2013).
Entries after “also recorded” stand apart in the source; their conditions may differ.

Legend:
[1] = test system: skin keratinocyte (HaCaT); assay: proliferation of cultured cells, MTT method, HaCaT; format: cell-based, human; details: saccharide 50 mM, 4 to 5 days
Experimental: Various kinds of rare saccharides were added at a concentration of 50 mM to culture media under the following conditions, and an influence of each rare saccharide upon the progress of proliferation of cancer cell strains was examined.
(1) Target cells to which the rare saccharides were added: Hepatic cancer cells (HepG2), uterine cancer cells (He1a), ovary cancer cells (OVCAR3), and skin keratinocyte (HaCaT) were selected as target cells to which the rare saccharides were added.
(2) Rare saccharides added: In addition to D-allose, glucose and D-altros as rare saccharides belonging to ketose were added, as other comparative saccharides, to the addition target cells. Also, D-fructose was employed as a control.
(3) Experiment method: A number 3,000-5,000 of addition target cells per type were inoculated into a multi-well plastic dish (hereinafter referred to as a “well”) having 96 wells, and were cultured for 4 to 5 days in a culture medium supplemented with 5 to 10% of Fetal Bovine Serum (FBS) depending on the cell types. […] To examine the influence upon the cell proliferation, the cell number was measured in units of 24 hours by using the MTT method described below. […]
(2) Test method: The cells were treated with TEP to prepare a cell suspension liquid. […] The absorbance of the liquid was measured at a wavelength of 570 to 600 nm by using a spectrophotometer. […]

THP-1 = assay: blood-system cancer cell strain proliferation, Coulter Counter, THP1; format: cell-based; details: 0.05-50 mM, 7 days, D-glucose control
Experimental: (§1) (2) Method: Total 6 kinds of cell strains, i.e., Myeloid (HL-60, THP-1, KG-1), T-cell (MT-2), and B-Cell (Daudi, KS-1), and 3 kinds of rare saccharides (i.e., D-psicose, D-altrose, and D-allose), were employed. The culture medium and the cells were prepared to be 1 mL in total and 1×10^5 in number, respectively. Then, the cell number at each of fourth day and seventh day was counted by using a Coulter Counter. Each rare saccharide was added at concentrations of 0.05, 0.5, 5 and 50 mM, while D-glucose was used as a control.
(§2) Culture Medium: FBS 10% added RPMI1460
(§3) Cultivation Conditions: 37° C., 5% CO2
(§4) Cultivation Vessel: FALCON, MULTIWELL, 12 wells
(§5) Number of Cultivation Days: 7 days
(§6) Saccharides Concentration: 0.05, 0.5, 5, 50 mM

KS-1 = assay: blood-system cancer cell strain proliferation, Coulter Counter, KS1; format: cell-based; details: 0.05-50 mM, 7 days, D-glucose control
Experimental: as §1, §2, §3, §4, §5, §6

KG-1 = assay: blood-system cancer cell strain proliferation, Coulter Counter, KG1; format: cell-based; details: 0.05-50 mM, 7 days, including the control
Experimental: as §1, §2, §3, §4, §5, §6

[2] = test system: glutamate release from hippocampus; assay: temporary brain ischemia, glutamate outside hippocampus neurons by micro-dialysis; format: in vivo, gerbil
Experimental: (2) Method: The bilateral common carotid artery of a gerbil was shut off for 5 minutes. After 1 week, the gerbil was sacrificed and a sample was prepared in accordance with the ordinary method, followed by hematoxyline eosin dyeing. The survival rate was measured by counting the number of hippocampus neurons while looking at them under a microscope. Experiments were performed on a normal control group, a group subjected to only ischemia, and a group administrated with 200 mg/kg of D-allose or D-psicose before ischemia. It is known that glutamates released in large amount from the neurons with ischemia are toxic to the neurons. Such a point was examined by fixing the gerbil to a brain position fixing device, perfusing a solution, in which oxidase glutamate is dissolved, to the hippocampus through a probe for micro-dialysis, and measuring the glutamate concentration outside the hippocampus neurons. Also, the inventors have clarified the relationship between the metabolism of glucose and the action mechanism of D-allose with ischemia by pre-administrating D-allose and 2-deoxiglucose.

rat intestinal tract = assay: glucose absorption in reversed intestinal tract; details: D-psicose at concentration comparable to that of glucose
Experimental: To clarify an influence of D-psicose upon the absorption of glucose, the influence of D-psicose upon the absorption of glucose was analyzed by using a rat intestinal tract. The absorption of glucose was analyzed by measuring concentrations outside and inside a mucous membrane of an intestinal tract by a quantitative manner based on the glucose oxidase method. How the absorption of glucose changed under coexistence of D-psicose and glucose was measured. Further, how a sugar absorption system changed was analyzed by using an intestinal tract of a rat administrated with D-psicose for a long time. […] After the lapse of a certain time, the solution on the serous membrane side was sampled and the glucose concentration was measured. By adding D-psicose at various concentrations, an influence of D-psicose upon transport of glucose from the mucous membrane side to the serous membrane side was studied.

[3] = influence of psicose upon hyperglycemia; format: in vivo, rat; details: 0.5 g/kg intravenous; compared with deoxyglucose control
Experimental: IVGTT was conducted on 8-week old male SD rats by inserting a catheter through the jugular vein, injecting 50% glucose at intervals of 20 minutes to make a hyperglycemic state, and then injecting psicose and deoxyglucose. A rare saccharide was administrated to 1 rat, and deoxyglucose was administrated to 1 rat.
Perform intravenous injection (IV) at 0.5 g/kg (i.e., 0.5 g/1000 g=500 mg/1000 g=0.5 mg/g).
Prepare rare-saccharide and deoxyglucose solutions in concentration of 0.5 g/mL (i.e., 0.5 g/1000 ul=500 mg/1000 ul=0.5 mg/ul). Prepare 2 mL of solution for each concentration.
Intravenously inject 200 ul of the solution for a 200 g rat.
Intravenously inject 250 ul of the solution for a 250 g rat.
Inject 300 ul of physiological saline after the intravenous injection.
Collect 150 ul of blood sample.
Collect blood at 9 points in time, i.e., 0, 5, 10, 15, 20, 25, 30, 45 and 60 minutes.

Row | SMILES | proliferation of HaCaT cells (cell number over time) [1] | THP1 proliferation inhibitory effect (THP-1) | KS1 proliferation inhibitory effect (KS-1) | KS1 proliferation inhibitory effect (KS-1; listed as allose) | KG1 proliferation inhibitory effect (KG-1) | inhibition rate of second peak of glutamate release (hyperperfusion after ischemia) ([2]; administration of D-allose) | inhibition rate of first peak of glutamate release (with ischemia) ([2]; pre-administration of D-allose) | rise of glucose concentration on the serous membrane side (rat intestinal tract) | blood sugar value in hyperglycemic state [3] | insulin concentration in hyperglycemic state [3]
1 | O=C[C@H](O)[C@H](O)[C@H](O)[C@H](O)CO [D-allose] | strongly inhibited proliferation; also recorded: has a proliferation inhibitory effect | showed a cell proliferation inhibitory effect at 59 mM | having the inhibitory effect | showed a cell proliferation inhibitory effect at 59 mM | having the inhibitory effect | about 90% | about 25% | – | – | –
2 | O=C(CO)[C@H](O)[C@H](O)[C@H](O)CO [D-psicose] | – | – | – | – | – | – | – | significantly inhibited | reduced more quickly | an increase in the insulin secretion
